Laboratory results from patent US9707231B2, “Compositions and methods for reduction of amyloid-beta load” (Modgene, LLC, priority 2011, dated 2017).
Values joined by “and” are separate entries in the source; they are usually repeats but may differ in a detail not shown here. Equal values may be shown once. Where a name gives a salt, the structure may show the parent alone. Read-outs that look alike come from different tables or passages of the source.

How the values were obtained:
[1] = cited from earlier work
[2] = cited from earlier work; remark: listed apart in the source
Aβ [3] = experiment: Aβ in media of SYSY-APP cells, Covance ELISA; format: cell-based
Procedure: • 1. Thaw SYSY-APP cells, add to warmed high glucose DMEM with 10% serum, pen-strep in t-75 flask. In 2 days, split culture into 4 flasks. Collect cells from 3 and freeze in liquid N2. Use remaining culture for experiment. • 2. Seed 24-well plate with cells in same media. Grow to confluence. • 3. […] After 16 hr incubation, isolate media, add 10 ul protease inhibitor and spin out cells and debris (3000×g); • 4.

[4] = cited from earlier work; remark: listed apart in the source
Abl kinase = molecular target: T1, Abl kinase (Homo sapiens, UniProt P00519); experiment: Abl kinase activity, 32P-ATP / Abltide peptide, scintillation counting; format: biochemical; conditions: for Abl kinase activity, CPM (single assay): duplicates 1 and 2
T1 construct: purchased Millipore, Temecula, Calif
Procedure: The following were combined in order:
10 μL 2.5× kinase assay buffer
2.5 μL Abl kinase (Millipore, Temecula, Calif.)
1 μL DMSO vehicle or inhibitor in DMSO on ice
2.5 μL Abltide synthetic peptide substrate, biotin-tagged (Millipore, Temecula, Calif.) • Incubate at 30° C. for 10 min.; • Stop by the addition of 12.5 μL 7.5M guanidine HCL to each reaction, vortex. • Spot 12.5 μL on SAM2 biotin capture membrane (Promega Corp., Madison, Wis.) • Wash the membrane (4×2M NaCl; 4×2M NaCl, 1% H3PO4, 2×H2O, at room temp.) • Kinase activity was determined by scintillation counting. • The Scintillation count: final drug concentration shown • Each assay was performed in duplicate.

Aβ [5] = test system: Aβ
Procedure: Wild-type C57B1/6 and DBA/2J male mice (age 8-12 weeks) were administered drug or vehicle twice daily for 7 days by intraperitoneal injection.
Animals were sacrificed 12 hr after the last injection. Individual mice were anesthetized with isoflurane and blood samples (100-300 ul) taken by cardiac puncture with heparinized syringes. Samples were placed on ice for 30 minutes in the presence of EDTA and then centrifuged for 20 minutes at 16,000×g at 4° C. The plasma fraction was removed and stored at −80° C. Brains were removed and frozen rapidly on dry ice and stored at −80° C.
Detection of mouse Aβ1-40 in blood and brain samples was performed by using a commercially available immunoassay kit (Biosource mouse Aβ1-40, Catalog No. KMB3481, Invitrogen, Carlsbad, Calif.) or by Western blot. Mouse brain samples were prepared by homogenizing brain tissue in a polytron in the presence of 5M guanidine HCl and 50 mM Tris HCl, pH 8.0 as described in the assay protocol.
Blood samples were diluted 1:5 in standard diluent buffer. Samples were assayed in duplicate and OD450 measured on a Tecan infinite 2000 plate reader.
For Western blots, samples were subjected to P AGE analysis, transferred to PVDF membranes and the Aβ hexamers were visualized using a monoclonal antibody 4G8 directed against mouse Aβ (1:1,000; Covance) using the manufacturer's recommended protocol. Blots were scanned by densitometry, and then reprobed with an antibody to histone H3 (1:50,000; Abcam) as a loading and transfer control. Data are depicted as normalized optical density.

[6] = 20 mg/kg IP twice daily 7 days, young and old B mice

T1 sequence (P00519 whole entry): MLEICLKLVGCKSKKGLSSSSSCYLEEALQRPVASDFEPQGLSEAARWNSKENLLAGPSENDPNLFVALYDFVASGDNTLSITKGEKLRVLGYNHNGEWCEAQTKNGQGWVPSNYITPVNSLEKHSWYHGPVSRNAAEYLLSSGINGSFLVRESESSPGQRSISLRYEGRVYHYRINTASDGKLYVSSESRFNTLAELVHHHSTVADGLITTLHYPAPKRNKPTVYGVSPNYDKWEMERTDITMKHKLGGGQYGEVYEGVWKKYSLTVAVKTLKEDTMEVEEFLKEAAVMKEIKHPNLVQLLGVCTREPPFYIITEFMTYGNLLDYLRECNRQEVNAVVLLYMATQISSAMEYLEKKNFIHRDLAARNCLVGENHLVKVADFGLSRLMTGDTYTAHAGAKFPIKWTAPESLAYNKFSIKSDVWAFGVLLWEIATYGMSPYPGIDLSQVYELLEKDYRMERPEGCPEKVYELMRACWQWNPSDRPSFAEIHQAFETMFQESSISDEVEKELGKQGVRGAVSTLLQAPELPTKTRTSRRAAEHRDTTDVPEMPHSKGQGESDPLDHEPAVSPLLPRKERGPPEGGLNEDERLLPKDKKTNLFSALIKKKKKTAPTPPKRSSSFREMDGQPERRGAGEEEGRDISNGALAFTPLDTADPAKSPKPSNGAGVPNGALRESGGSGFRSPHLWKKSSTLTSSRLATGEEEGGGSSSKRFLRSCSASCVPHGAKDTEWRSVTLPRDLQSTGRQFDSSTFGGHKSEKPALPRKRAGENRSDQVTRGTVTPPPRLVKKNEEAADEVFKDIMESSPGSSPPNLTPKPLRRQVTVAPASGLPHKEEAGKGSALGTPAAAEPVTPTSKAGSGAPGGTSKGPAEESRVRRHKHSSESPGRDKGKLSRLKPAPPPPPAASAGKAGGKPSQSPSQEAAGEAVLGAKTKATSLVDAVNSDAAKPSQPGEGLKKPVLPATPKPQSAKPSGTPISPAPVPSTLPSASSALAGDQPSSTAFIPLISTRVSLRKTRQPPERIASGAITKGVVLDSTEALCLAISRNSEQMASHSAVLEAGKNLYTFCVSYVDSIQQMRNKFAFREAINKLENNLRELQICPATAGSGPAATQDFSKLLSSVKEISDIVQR

COc1cc([S+](C)[O-])ccc1-c1nc2ncccc2[nH]1 (stereo not drawn) [ARL115, sulmazole]
log P, calcd. ([1]; calculated value): 1.82
CNS side effects (in words) ([2]; humans): lack the CNS side effects

COc1ccc(-c2nc3ncccc3[nH]2)c(OC)c1.Cl [ARL-57]
log P ([1]; pH 8): 2.59
CNS side effects (in words) ([2]; in vivo): spectacular bright color vision

Cc1cc(NC(=O)c2ccc(CN3CCN(C)CC3)cc2)ccc1Nc1nccc(-c2cccnc2)n1 [Imatinib para-diaminomethylbenzene 3 HCl]
effect on Aβ concentration (in words) (Aβ [3]; 3-100 μM, 150 μL media supernatant, FIG. 7): stronger inhibition of Aβ than does imatinib

Cc1ccc(NC(=O)c2ccc(CN3CCNCC3)cc2)cc1Nc1nccc(-c2cccnc2)n1 [N-desmethyl imatinib]
reduction of Aβ compared with imatinib (in words) (Aβ [3]; 3-100 uM, 16 hr, 100 μL aliquot, FIG. 6): more effective reduction of Aβ than does imatinib
plasma AUC of the metabolite as share of the AUC for imatinib ([4]; humans): about 15%
elimination half-life ([4]; oral administration in healthy volunteers): ~40 h
Abl kinase activity, CPM (single assay) (Abl kinase; 10 μM final drug concentration, DMSO vehicle 2837/2956): 540 CPM and 649 CPM
Abl kinase activity, AVERAGE of the two assays (Abl kinase; 10 μM, DMSO vehicle average 2897): 595 CPM
Abl kinase activity, AVERAGE of the two assays (Abl kinase; 30 μM): 149 CPM
Abl kinase activity, CPM (single assay) (Abl kinase; 30 μM final drug concentration): 149 CPM
Abl kinase activity, AVERAGE of the two assays (Abl kinase; 100 μM): 107 CPM
Abl kinase inhibition (in words) (Abl kinase; concentrations 10 to 100 μM, FIG. 8): inhibits Abl kinase less than does imatinib

Cc1ccc(NC(=O)c2ccc(CN3CCN(C)CC3)cc2)cc1Nc1nccc(-c2cccnc2)n1 [STI-571]
reduction of brain levels of Aβ (Aβ [5]; [6]): approximately 50%
reduction of plasma levels of Aβ (Aβ [5]; [6]): approximately 50%
reduction of circulating (plasma) Aβ (Aβ [5]; highest dose (100 mg/kg) IP twice daily 7 days, young D2 mice): approximately 75%

Cc1ccc(NC(=O)c2ccc(CN3CCN(C)CC3)cc2)cc1Nc1nccc(-c2cccnc2)n1 [imatinib, reference compound]
Cmax (time) ([4]; oral administration in pediatric patients): 2 to 4 h
